Data reported in publication PMC7175203, “PIRT the TRP Channel Regulating Protein Binds Calmodulin and Cholesterol-Like Ligands” (Biomolecules, 2020).
One block for each molecule: values may come before it. Bridge positions count the residues as written; N and C are the ends. Ends that are not written are not given here.

Experiments:
[1] = target: T1, PIRT (Phosphoinositide-interacting regulator of TRP) (Homo sapiens, UniProt P0C851); assay: microscale thermophoresis; assay type: binding
[2] = target: T1, PIRT (Phosphoinositide-interacting regulator of TRP); assay: microscale thermophoresis; […]-PIRT HSQC NMR chemical shift perturbation; assay type: binding
Calmodulin (holo) = Calmodulin (holo) (UniProt P0DP23); assay: tryptophan fluorescence; details: cited from earlier work
[3] = target: T2, Human PIRT (phosphoinositide-interacting regulator of TRP), fluorescently labeled for MST (human, UniProt P0C851 1-137, fluorescently labeled (dye and site not stated; by the protocol of ref. 24)); assay: MST; 200 nM fluorescently labeled PIRT, peptide hormone titrated; 0.1% DPC (w/v), 50 mM HEPES, pH 7.0; room temperature; triplicate; details: both partners purified
T2 construct: Measured in 0.1% DPC micelles; The His tag is named only for the pull-down; also called MST labeled PIRT; source: purified
T2 sequence (P0C851 whole entry): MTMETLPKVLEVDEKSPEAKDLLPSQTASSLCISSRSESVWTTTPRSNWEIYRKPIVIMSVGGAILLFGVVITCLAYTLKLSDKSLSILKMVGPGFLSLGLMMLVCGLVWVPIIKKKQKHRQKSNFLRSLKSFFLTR

T1 sequence (P0C851 whole entry): as above

Molecule: C=C1CC[C@H](O)C/C1=C/C=C1\CCC[C@]2(C)[C@@H]([C@H](C)CCCC(C)C)CC[C@@H]12 [Cholecalciferol]
Kd [1]: 2100 µM

Molecule: C[C@]12CCC(=O)C=C1CC[C@@H]1[C@@H]2[C@@H](O)C[C@@]2(C)[C@H]1CC[C@]2(O)C(=O)CO [Cortisol]
Kd ([1]; read-out: Kd): 790 µM

Molecule: TRPV1 distal C-terminus (from UniProt O35433)
Kd (Calmodulin (holo)): 0.054 µM

B1: Oxytocin (peptide, UniProt P01178 20-28, looked up)
peptide: CYIQNCPLG-NH2
modifications: disulfide 1-6
notes: oxytocin, peptide hormone, cyclic nonapeptide cut from the oxytocin-neurophysin 1 precursor
Kd [3]: 7 µM

Next, values leading:

Kd ([1]; read-out: Kd): 103 µM
Molecule: CC(C)CCC[C@@H](C)[C@H]1CC[C@H]2[C@@H]3CC=C4C[C@@H](OC(=O)CCC(=O)O)CC[C@]4(C)[C@H]3CC[C@]12C [cholesteryl-hemisuccinate]

Kd [2]: 800 µM
Molecule: C[C@]12CC[C@@H]3c4ccc(O)cc4CC[C@H]3[C@@H]1CC[C@@H]2O [β-Estradiol]
